Laboratory results: patent publication US6277886A (priority 1996, dated 2001)
“And” between values parts separate entries of the source, which are not always exact repeats. Equal values may be shown once. Read-outs that look alike come from different tables or passages of the source.

What was measured:
anesthetized cat = conditions: for Change in MABP / Change in PR: 45-60 min
Protocol: Cats were anesthetized with i.v. nembutal 25 mg/kg. Anesthesia was maintained by additional injections of nembutal, 5 mg/kg, as needed. The femoral artery was cannulated and connected to a Statham pressure transducer for blood pressure recordings on a Grass multichannel Polygraph. The femoral vein was cannulated for i.v. injection of drugs.

WKY rats = conditions: for Change in HR / Change in MBAP: 45-60 min
Protocol: (§1) A chronic indwelling catheter was implanted in the caudal artery under light anesthesia with averteen. The animals were allowed to recover and were tested 24 hours after implantation. The cathetar was connected to a Statham pressure transducer and blood pressure was recorded on a Grass multichannel Polygraph. During this period, the rat was kept in its home cage in order to minimize handling and undue manipulations known to affect blood pressure.
(§2) Two strains of rats were used: WKY rats and matching SHR (Spontaneously Hypertensive Rats) rats. WKY rats were from a local strain, weighing about 250 g each.
(§3) Blood pressure and heart rate were then monitored for the duration of 45-60 minutes.

MAO mediated effects = conditions: Examples 4-9; in words
SHR rats = conditions: for Change in Mean Systolic Blood Pressure / Change in Heart rate: 2 mg/kg p.o. daily
Protocol: (§4) Spontaneously hypertensive rats, three month-old, were used. […] Controls received an equivalent volume of tap water. Treatment lasted 14 days. During this period, systolic blood pressure was monitored on days 0, 4, 7 and 11, using a tail-cuff procedure. On day 14, systolic blood pressure was determined using the indwelling catheter procedure described in Example 7.

[1] = for Weight: 2 mg/kg/day oral
Protocol: as §4
The rats used in Example 8 above, were additionally monitored for weight gain/loss as an additional marker for the rate of food consumption MAO inhibitors usually elevate central catechoiamines which may depress appetite.

[2] = test system: male Wistar rats after middle cerebral artery occlusion (MCA-O)
Description: In order to expose the left middle cerebral artery, a cut was made in the temporal muscle. The tip of the coronoid process of mandible was excised as well and removed with a fine rongeur. Craniectomy was made with a dental drill at the junction between the median wall and the roof of the inferotemporal fossa.
The dura matter was opened carefully using a 27 gauge needle. […] Following this, the temporalis muscle was sutured and laid over the craniectomy site. The skin was closed with a running 3-0 silk suture. […] The volume of brain tissue incurring damage following ischemia was determined.

MAO-A/MAO-B = conditions: in vitro; in words; cited from earlier work
[3] = test system: SHR (Spontaneously Hypertensive Rats) rats; conditions: for Change in HR / Change in MBAP: 45-60 min
Protocol: as §1, §2
SHR rats were purchased from Charles River breeders, England. The animals were allowed to acclimatize and recover from the journey and were used at the age of three months, in order to match their WKY controls. SHR hypertension develops gradually from the age of one month to the age of three months. At this stage, blood pressure is already elevated above normotensive levels.
as §3

[4] = test system: reserpine induced ptosis in rats; test: Reserpine-induced ptosis in rats; assay type: in vivo; conditions: for Mean score of reserpine-induced ptosis: reserpine 5 mg/kg i.p., 0-4 scale, 4 = eyes completely open, saline 0.86
Description: Reserpine-induced ptosis and its reversal test. Reserpine causes depletion of catecholamine stores, especially norepinephrine. This effect in the live animal is manifested among other things, in ptosis. Drugs that can prevent or inhibit reserpine-induced ptosis act either directly as noradrenergic agonists, or indirectly by decreasing or preventing the metabolic elimination of endogenous norepinephrine. MAO inhibitors belong to the latter category.

mice after CHI = conditions: in words
Protocol: (§5) The procedure for closed head injury followed was as described for rats in Shohami et al. (J Neurotrauma (1993) 10(2) 109-119) with changes as described.
(§6) Animals: Male Sabra mice (Hebrew University strain) weighing 34-40 g were used. They were housed in groups of 10 per cage, in a 12 hr:12 hr. light:dark cycle. Food and water were provided ad libitium.
(§7) Trauma was induced under anaesthesia. A longitudinal incision was performed in the skin covering the skull and the skin retracted to expose the skull. The head was fixed manually at the lower plane of the impact apparatus. A weight of 333 g was delivered by an electric device from a distance of 3 cm to the left hemisphere, 1-2 mm lateral to the midline in the midcoronal plane.

[5] = test system: injured mice after closed head injury (CHI); conditions: 1 mg/kg s.c. 15 min after CHI
Protocol: as §5, §6, §7
One point was awarded for the lack of a tested reflex or for the inability to perform the task outline in the Table. The maximal score that can be reached at 1 hour post-CHI is 25 points and at later times, 21 points. The difference in NSS at 1 hr. and at any other time reflects the spontaneous recovery, and is referred to as ΔNSS. A score of 15-19 at 1 hr denotes severe injury, 11-14 denotes moderate injury and less than 10 denotes mild injury.

SMILES: C#CCN[C@H]1CCc2ccccc21 [S(-)PAI, S-(-)-N-propargyl-1-aminoindan]
- Change in MABP (anesthetized cat; dose 0.03, i.v.): 7 mmHg and 5 mmHg
- Change in MABP (anesthetized cat; dose 0.1, i.v.): -12 mmHg
- Change in PR (anesthetized cat; dose 0.1, i.v.): 0 beats/min
- Change in MABP (anesthetized cat; dose 1.0, i.v.): 2 mmHg
- Change in PR (anesthetized cat; dose 1.0, i.v.): -5 beats/min
- mean arterial blood pressure (MABP) and heart rate (HR) (anesthetized cat; i.v., up to cumulative dose of 1 mg/kg, 45-60 minutes, in words): neither mean arterial blood pressure (MABP) nor heart rate (HR) were affected
- blood pressure and heart rate (WKY rats; acute oral, in words): no effect on either parameter in either strain of rats
- Change in HR (WKY rats; dose 5, oral): 0 beats/min
- Change in MBAP (WKY rats; dose 5, oral): 0 mmHg
- Change in HR (WKY rats; dose 10, oral): 0 beats/min
- Change in MBAP (WKY rats; dose 10, oral): 0 mmHg
- Change in HR (WKY rats; dose 20, oral): 0 beats/min
- effect on several MAO mediated effects (MAO mediated effects): minimal or no effect
- Change in Mean Systolic Blood Pressure (SHR rats; day 0, tap water 169.55 ± 7.73): 166.88 ± 6.11 mmHg
- Change in Heart rate (SHR rats; day 0, tap water 374.09 ± 7.17): 404.13 ± 32.86 beats/min
- Change in Mean Systolic Blood Pressure (SHR rats; day 4, tap water 177.82 ± 9.08): 168.5 ± 12.8 mmHg
- Change in Heart rate (SHR rats; day 4, tap water 403 ± 23.3): 394.5 ± 37.43 beats/min
- Change in Mean Systolic Blood Pressure (SHR rats; day 7, tap water 177.67 ± 10.21): 172.13 ± 14.62 mmHg
- Change in Heart rate (SHR rats; day 7, tap water 392.67 ± 24.66): 394.38 ± 24.47 beats/min
- Change in Mean Systolic Blood Pressure (SHR rats; day 11, tap water 178 ± 8.65): 167.43 ± 14.23 mmHg
- Change in Heart rate (SHR rats; day 11, tap water 371.25 ± 27.22): 408 ± 40.04 beats/min
- intraindividual and interindividual profile of systolic blood pressure and heart rate (SHR rats; chronic oral 2 mg/kg/day, in words): no effect
- Weight ([1]; day 0, tap water 317 ± 32.64): 294.13 ± 32.06 g
- Weight ([1]; day 7, tap water 302.22 ± 35.17): 292.25 ± 28.47 g
- Weight ([1]; day 14, tap water 312.89): 307.33 ± 24.13 g
- body weight ([1]; 2 mg/kg/day, 14 days, in words): no effect on body weight
- neurological severity score (NSS) and infarct volume versus saline-treated rats ([2]; in words): significantly lower
- Mean NSS ± SEM after 24 hours ([2]; ip, 2 mg/kg): 6.5 ± 0.48
- preference for MAO-B or MAO-A (MAO-A/MAO-B): no preference to either substrate
- blood pressure and heart rate ([3]; acute oral, in words): no effect on either parameter in either strain of rats
- Change in HR ([3]; dose 1, oral): -30 beats/min
- Change in MBAP ([3]; dose 1, oral): -16 mmHg
- Change in HR ([3]; dose 2, oral): 0 beats/min
- Change in MBAP ([3]; dose 2, oral): -12 mmHg
- Change in HR ([3]; dose 10, oral): 0 beats/min
- Change in MBAP ([3]; dose 10, oral): 4 mmHg
- Mean score of reserpine-induced ptosis ([4]; 5 mg/kg i.p.): 1.8
- Mean score of reserpine-induced ptosis ([4]; 10 mg/kg i.p.): 2.5
- Mean score of reserpine-induced ptosis ([4]; 20 mg/kg i.p.): 1.5
- endogenous norepinephrine concentrations (inferred from ptosis scores) ([4]; in words): does not cause an increase in endogenous norepinephrine concentrations
- latency to find the platform, compared to saline treated controls (mice after CHI; FIG. 1, after CHI): reduction in latency
- memory, compared to saline-treated mice (mice after CHI; after CHI): Memory is enhanced
- Δ NSS, 24 hr post-CHI ([5]; saline 4.75 ± 0.17): 5.06 ± 0.25
- Δ NSS, 7 days post-CHI ([5]; saline 5.83 ± 0.36): 7.19 ± 0.28
- Δ NSS, 14 days post-CHI ([5]; saline 5.96 ± 0.4): 7.88 ± 0.36
